# Assay results reported in patent publication US20220125051A1, “PRE-HARVEST DESICCATION METHOD” (SYNGENTA CROP PROTECTION AG, priority 2019, published 2022).
# Like-named read-outs stand apart in the source and are kept apart here.
# Tests used:
# Test in all cases: Post-emergence efficacy, Method A
# Assay type in all cases: in vivo
# [1] = tested on: Euphorbia heterophylla (EPHHL); conditions: Euphorbia heterophylla, post-emergence, 312 h, evaluated after 13 days
# Procedure, shortened: (§1)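 Plants raised 14 days from seed in standard soil in a glasshouse (24/16 °C day/night, 14 h light, 65% humidity) were sprayed with compound dissolved in acetone plus IF50 solvent/emulsifier (50 g/l solution), diluted with 0.25% or 1% Empicol ESC70 + 1% ammonium sulphate. Damage was scored visually after 13 days (0 = none, 100 = total).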
# [2] = tested on: Amaranthus palmeri (AMAPA); conditions: Amaranthus palmeri, post-emergence, 312 h, evaluated after 13 days
# Procedure, shortened: as §1
# [3] = tested on: Lolium perenne (LOLPE); conditions: Lolium perenne, post-emergence, 312 h, evaluated after 13 days
# Procedure, shortened: as §1
# [4] = tested on: Setaria faberi (SETFA); conditions: Setaria faberi, post-emergence, 312 h, evaluated after 13 days
# Procedure, shortened: as §1
# [5] = tested on: Digitaria sanguinalis (DIGSA); conditions: Digitaria sanguinalis, post-emergence, 312 h, evaluated after 13 days
# Procedure, shortened: as §1
# [6] = tested on: Chenopodium album (CHEAL); conditions: Chenopodium album, post-emergence, 312 h, evaluated after 13 days
# Procedure, shortened: as §1
# [7] = tested on: Echinochloa crus-galli (ECHCG); conditions: Echinochloa crus-galli, post-emergence, 312 h, evaluated after 13 days
# Procedure, shortened: as §1
# [8] = tested on: Eleusine indica (ELEIN); conditions: Eleusine indica, post-emergence, 312 h, evaluated after 13 days
# Procedure, shortened: as §1
# [9] = tested on: Ipomoea hederacea (IPOHE); conditions: Ipomoea hederacea, post-emergence, 312 h, evaluated after 13 days
# Procedure, shortened: as §1
# [10] = Application Rate 500 g/Ha, Method A, read-out: Control of weed species after post-emergence application, EPHHL (100=total damage to plant; 0=no damage to plant)
# [11] = Application Rate 500 g/Ha, Method A, read-out: Control of weed species after post-emergence application, AMAPA (100=total damage to plant; 0=no damage to plant)
# [12] = Application Rate 500 g/Ha, Method A, read-out: Control of weed species after post-emergence application, LOLPE (100=total damage to plant; 0=no damage to plant)
# [13] = Application Rate 500 g/Ha, Method A, read-out: Control of weed species after post-emergence application, SETFA (100=total damage to plant; 0=no damage to plant)
# [14] = Application Rate 500 g/Ha, Method A, read-out: Control of weed species after post-emergence application, DIGSA (100=total damage to plant; 0=no damage to plant)
# [15] = Application Rate 500 g/Ha, Method A, read-out: Control of weed species after post-emergence application, CHEAL (100=total damage to plant; 0=no damage to plant)
# [16] = Application Rate 500 g/Ha, Method A, read-out: Control of weed species after post-emergence application, ECHCG (100=total damage to plant; 0=no damage to plant)
# [17] = Application Rate 500 g/Ha, Method A, read-out: Control of weed species after post-emergence application, ELEIN (100=total damage to plant; 0=no damage to plant)
# [18] = Application Rate 500 g/Ha, Method A, read-out: Control of weed species after post-emergence application, IPOHE (100=total damage to plant; 0=no damage to plant)
# [19] = Application rate 500 g/Ha, 100=total damage to plant, 0=no damage to plant, read-out: Control of weed species after post-emergence application, EPHHL
# [20] = Application rate 500 g/Ha, 100=total damage to plant, 0=no damage to plant, read-out: Control of weed species after post-emergence application, AMAPA
# [21] = Application rate 500 g/Ha, 100=total damage to plant, 0=no damage to plant, read-out: Control of weed species after post-emergence application, LOLPE
# [22] = Application rate 500 g/Ha, 100=total damage to plant, 0=no damage to plant, read-out: Control of weed species after post-emergence application, SETFA
# [23] = Application rate 500 g/Ha, 100=total damage to plant, 0=no damage to plant, read-out: Control of weed species after post-emergence application, DIGSA
# [24] = Application rate 500 g/Ha, 100=total damage to plant, 0=no damage to plant, read-out: Control of weed species after post-emergence application, CHEAL
# [25] = Application rate 500 g/Ha, 100=total damage to plant, 0=no damage to plant, read-out: Control of weed species after post-emergence application, ECHCG
# [26] = Application rate 500 g/Ha, 100=total damage to plant, 0=no damage to plant, read-out: Control of weed species after post-emergence application, ELEIN
# [27] = Application rate 500 g/Ha, 100=total damage to plant, 0=no damage to plant, read-out: Control of weed species after post-emergence application, IPOHE
SMILES,"pest or weed control at 500 g/ha [1, 10] [%]","pest or weed control at 500 g/ha [2, 11] [%]","pest or weed control at 500 g/ha [3, 12] [%]","pest or weed control at 500 g/ha [4, 13] [%]","pest or weed control at 500 g/ha [5, 14] [%]","pest or weed control at 500 g/ha [6, 15] [%]","pest or weed control at 500 g/ha [7, 16] [%]","pest or weed control at 500 g/ha [8, 17] [%]","pest or weed control at 500 g/ha [9, 18] [%]","pest or weed control at 500 g/ha [1, 19] [%]","pest or weed control at 500 g/ha [2, 20] [%]","pest or weed control at 500 g/ha [3, 21] [%]","pest or weed control at 500 g/ha [4, 22] [%]","pest or weed control at 500 g/ha [5, 23] [%]","pest or weed control at 500 g/ha [6, 24] [%]","pest or weed control at 500 g/ha [7, 25] [%]","pest or weed control at 500 g/ha [8, 26] [%]","pest or weed control at 500 g/ha [9, 27] [%]"
Cc1c[n+](CCC(=O)O)ncc1-c1ncccn1 [Compound A153],40,90,0,20,20,60,40,20,20,,,,,,,,,
COC(=O)C(C)[n+]1ccc(-c2ncccn2)cn1 (stereo not drawn) [Compound A192],40,90,10,20,30,60,30,30,30,,,,,,,,,
COC(=O)CC[n+]1ccc(-c2cccnn2)cn1 [Compound A139],,,,,,,,,,90,80,90,100,100,100,100,100,10
N#Cc1cnc(-c2cc[n+](CCS(=O)(=O)[O-])nc2)cn1 [Compound A191],30,100,30,20,20,30,10,30,30,,,,,,,,,
"Cc1n[n+](CCS(=O)(=O)[O-])ccc1-c1ncccn1 [Compound A88, 2-(3-methyl-4-pyrimidin-2-yl-pyridazin-1-ium-1-yl)ethanesulfonate]",,,,,,,,,,60,100,60,70,90,70,60,90,30
Cc1c[n+](CCS(=O)(=O)[O-])ncc1-c1ncccn1 [Compound A87],,,,,,,,,,50,50,70,70,70,30,70,60,40
O=S(=O)([O-])CC[n+]1ccc(-c2ncc(C3CC3)cn2)cn1 [Compound A34],,,,,,,,,,70,100,60,70,60,70,30,90,70
COc1cc(C)nc(-c2cc[n+](CCC(=O)[O-])nc2)n1 [Compound A105],,,,,,,,,,50,90,50,90,60,20,40,20,0
Cc1cc(F)cnc1-c1cc[n+](CCS(=O)(=O)[O-])nc1 [Compound A104],,,,,,,,,,20,10,10,30,30,0,30,50,30
CC(=O)c1cnc(-c2cc[n+](CCC(=O)[O-])nc2)nc1 [Compound A58],,,,,,,,,,60,100,50,90,90,80,60,80,10
CCOP(=O)(CCC[n+]1ccc(-c2ncccn2)cn1)OCC [Compound A204],0,10,0,0,0,20,0,0,0,,,,,,,,,
O=S(=O)(O)CCC[n+]1ccc(-c2cnccn2)cn1 [Compound A10],,,,,,,,,,100,100,90,60,60,100,30,50,40
O=C(O)CC[n+]1ccc(-c2ncccc2C(F)(F)F)cn1 [Compound A128],,,,,,,,,,0,30,40,30,30,10,30,50,0
O=C(O)CC[n+]1ccc(-c2ccncc2F)cn1 [Compound A157],80,100,30,80,70,100,80,90,60,,,,,,,,,
O=C(O)CC[n+]1ccc(-c2ccnc(C(F)(F)F)c2)cn1 [Compound A166],60,30,70,40,70,50,50,60,60,,,,,,,,,
O=S(=O)([O-])CC[n+]1ccc(-c2ncc(F)cn2)cn1 [Compound A19],,,,,,,,,,60,100,20,60,50,60,40,60,40
